Values quoted from earlier work in patent US20130085177A1, “COSMETIC COMPOSITION BASED ON ELLAGIC ACID OR A DERIVATIVE THEREOF AND ON A PARTICULAR MIXTURE OF SURFACTANTS” (priority 2010, published 2013).

SMILES: O=c1oc2c(O)c(O)cc3c(=O)oc4c(O)c(O)cc1c4c23 [ellagic acid, 2,3,7,8-tetrahydroxy(1)benzo-pyrano(5,4,3-cde)(1)benzopyran-5,10-dione]
- solubility in water and in the solvents and oils commonly used in cosmetic compositions: very low
